Values of other authors in patent publication US9469654B2, “Bicyclic oxa-lactam kinase inhibitors” (PORTOLA PHARMACEUTICALS, INC., priority 2012, dated 2016).

Tests used:
[1] = system: refractory NHL and chronic lymphocytic leukemia; details: phase II clinical trial
[2] = system: lymphoma cell lines and primary human lymphoma samples

COc1cc(Nc2ncc(F)c(Nc3ccc4c(n3)NC(=O)C(C)(C)O4)n2)cc(OC)c1OC [Example R406]
clinical outcome [1]: favorable results | activity against JAK kinases (JAK kinases): active against | activity against Src kinase (Src kinsase): not against | apoptosis ([2]; lymphoma cell lines): resulting in apoptosis | effect on BCR signaling ([2]; lymphoma cell lines and primary human lymphoma samples): attenuates BCR signaling
